The values below come from ChEMBL document CHEMBL4257461, “Schizophrenia: synthetic strategies and recent advances in drug design” (Medchemcomm, 2018).

The nature of data set [1]: Drug excretion in po dosed human. The conditions noted are these: in vivo.
The nature of data set [2]: Terminal half life in po dosed human. The note with it: in vivo.
Data set [3] is described as follows: Half life in im dosed human plasma. Format: ADME, organism-based.
A short description of data set [4]: Half life in iv dosed human plasma. In kind it is ADME, organism-based.
Data set [5] is described as follows: Half life in po dosed human plasma. In kind it is ADME, organism-based.
A short description of data set [6]: Drug absorption in po dosed human. Format: ADME, organism-based. The note with it: in vivo, read-out: Drug absorption.
Data set [7] is described as follows: Oral bioavailability in human. In kind it is ADME, organism-based. The conditions noted are these: in vivo.
Data set [8] can be described thus: Tmax in human at 9.75 mg, im administered as single dose. In kind it is ADME, organism-based. The conditions noted are these: in vivo.

As usually defined, the half-life is the time in which the quantity being followed falls by half. Low values mean fast loss, high ones slow loss. Consider `OCCOCCN1CCN(C2=Nc3ccccc3Sc3ccccc32)CC1` [QUETIAPINE], for which the dose excreted in data set [1] was < 1%. Further, the half-life in data set [2] was 6 h.
Take `O=C(CCCN1CCC(O)(c2ccc(Cl)cc2)CC1)c1ccc(F)cc1` [HALOPERIDOL]: the half-life in data set [3] is 21 h; in data set [4], 14 h; in data set [5], 24 h.
As usually defined, the bioavailability is the share of a dose that reaches the circulation, judged against a reference dose that is usually intravenous. A lower bioavailability goes with poor availability. Consider `CN1CCN(C2=Nc3cc(Cl)ccc3Nc3ccccc32)CC1` [CLOZAPINE], for which the Fa in data set [6] lay within 90 to 95%. The same molecule came in with a bioavailability in data set [7] of 50 to 60%.
Consider `O=C1[C@@H]2[C@H]3CC[C@H](C3)[C@@H]2C(=O)N1C[C@@H]1CCCC[C@H]1CN1CCN(c2nsc3ccccc23)CC1` [LURASIDONE], for which, in data set [6], the Fa was in the range of 9 to 19%.
What is called Tmax is the time at which the peak concentration occurs. With `O=C1CCc2ccc(OCCCCN3CCN(c4cccc(Cl)c4Cl)CC3)cc2N1` [ARIPIPRAZOLE], the Tmax in data set [8] came out at 3 h.
